Laboratory results taken from patent US20240279233A1, “MACROCYCLIC TAK1 INHIBITORS” (Aqilion AB, priority 2021, published 2024).
Values after ≈ are worked out from the molar mass of the structure shown. Where two headings read alike, the source gives them in different places.

Assays:
[1] = from COC(=O)c1cccc2nc(NC(=O)c3cccc(C(=O)O)c3)n(CCCCCN)c12; amide bond; 14-membered ring; HATU/DIEA; 16.0 h; 2 steps
[2] = amide bond, 14-membered ring
[3] = target: human recombinant TAK1-TAB1 Kinase (TAK1 (1-303) and TAB1 (437-end)) (Homo sapiens (Human), UniProt O43318); test: TAK1 biochemical ADP-Glo kinase assay; conditions: 10 μM ATP, MBP substrate; read-out: TAK1 Mean IC50 (nM) @ 10 μM ATP
Outline: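 Inhibition of human recombinant TAK1-TAB1 kinase was measured with a Promega ADP-Glo luminescence assay in 384-well plates. Compounds in 5% DMSO were pre-incubated 10 min with 2 μl TAK1-TAB1 (7.5 ng/μl) in buffer of Tris pH 7.5, MgCl2, DTT and BSA. MBP substrate and ATP were then added for 1 hour at room temperature. ADP-Glo reagent and kinase detection substrate followed, luminescence was read on an Envision, and IC50 came from non-linear regression.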

[4] = system: phosphorylated p38 (TAK1 activity) in THP-1 cells; test: Cell-based p38 phosphorylation assay (Western blot); conditions: for IC50: PMA-differentiated THP-1 cells, compound 30 minutes then 200 ng/ml LPS 30 minutes, read-out: IC50 (nM) in phospho-p38 cell assay
Procedure: The cellular activity of example compounds 2, 3 and 9 and the comparative example (i.e. takinib) for inhibiting TAK1 activity was evaluated using an in vitro functional cell assay.
THP-1 cells were incubated at 37° C. in 5% CO2. THP-1 cells were cultured in RPMI 1640, 10% FBS, 1% Penicillin-Streptomycin.
THP-1 cells were treated with 100 nM phorbol 12-myristate 13-acetate (PMA) to induce macrophage differentiation and seeded at the density of 1×10^6 cells/well (2 ml/well in a 6-well plate) for 72 hours. The cell culture media was then replaced with PMA-free media and incubated for further 48 hours. Test compounds were prepared as 200×final assay concentration stocks in DMSO (final concentrations in the assay were 10-0.03 μM in 0.5% DMSO, details provided below). Following THP-1 cell differentiation, cells were treated with different concentrations of the control compound NG25 (CAS No.:1315355-93-1, Tan L, et al. J Med Chem. 2015, 58(1), 183-96) or test compounds (10 μl/well) for 30 minutes followed by 200 ng/ml LPS for 30 minutes.
Test items were kept as 10 mM stock solutions in 100% DMSO. The serial dilution of compounds was prepared as 200× serial dilutions of desired final concentration in […] to reach 0.5% DMSO working solution (see Table 3 below).
Dilution series of compounds from 10 μM final highest concentration to 0.03 μM final low concentration were first made in DMSO (see Table 3), 10 μl of each dilution was mixed into 2 ml of cell cultures (0.5% DMSO per well).
10 μl of DMSO was added to the control. All plates were incubated at 37° C., 5% CO2 for 30 minutes and LPS was added to a final concentration of 200 ng/ml.
For Western blot analysis, cells were lysed (50 mM Tris, 150 mM NaCl, 1 mM EDTA, 1% Triton-X100, 1 mM DTT, complete protease and PhosStop phosphatase inhibitor) after indicated treatment and run on NuPAGE Bis-Tris gel 4-12% gradient (Invitrogen). Following transfer to PVDF membrane and blocking in 5% BSA in PBST, membranes were incubated with primary antibody overnight (specific for phosphorylated p38; Cell Signaling, 1:1,000 dilution). After incubation with species-specific secondary antibodies for 1 hour at room temperature, the membranes were visualized with the ECL SuperSignal™ West Pico PLUS Chemiluminescent Substrate (Thermo Scientific). The images were captured with iBright Western Blot Imaging Systems (Invitrogen) and quantified with ImageJ software (Java-based image processing program developed at the National Institutes of Health and the Laboratory for Optical and Computational Instrumentation). Anti-β-actin antibodies were used as the loading control for whole-cell extracts in all samples (anti-β actin; Sigma-Aldrich, 1:5000 dilution, 1 hour incubation).
For immunoblotting, cells were lysed directly in six-well plates by incubating for 30 min at 4° C. in 60 μl Triton lysis buffer. The lysates were centrifuged for 15 minutes at 13,000×g at 4° C. Equal amount of protein from each supernatants were resuspended with 5× sample buffer. Samples were boiled for 10 minutes and then resolved by 4-12% SDS-PAGE (100 V). Proteins were transferred from gel to PVDF membranes ([…] pore size) following the recommended setting (90 minutes, 85 V). […]

[5] = Solubility assay in phosphate buffer; conditions: phosphate buffer, pH 7.4, aqueous buffer, kinetic from dmso stock, Solubility (μM), phosphate buffer 100 mM, pH 7.4, room temperature, 20-24 h, LC-UV
Procedure: (§1) The aqueous solubility of selected example compounds was determined as follows; 6 μL of DMSO stock solution of the selected example was added to 594 μL phosphate buffer (100 mM, pH 7.4). The resulting mixture was equilibrated over night (20-24 h, Alligator Shaker, room temperature). The mixture was then filtered (Millex LH 0.45 μm) and the concentration/solubility was determined by LC-UV quantification.

[6] = pH 7.4
Procedure: as §1

human recombinant TAK1-TAB1 Kinase (TAK1 (1-303) and TAB1 (437-end)), sequence (O43318 other isoform, or with tags, fused parts or gaps): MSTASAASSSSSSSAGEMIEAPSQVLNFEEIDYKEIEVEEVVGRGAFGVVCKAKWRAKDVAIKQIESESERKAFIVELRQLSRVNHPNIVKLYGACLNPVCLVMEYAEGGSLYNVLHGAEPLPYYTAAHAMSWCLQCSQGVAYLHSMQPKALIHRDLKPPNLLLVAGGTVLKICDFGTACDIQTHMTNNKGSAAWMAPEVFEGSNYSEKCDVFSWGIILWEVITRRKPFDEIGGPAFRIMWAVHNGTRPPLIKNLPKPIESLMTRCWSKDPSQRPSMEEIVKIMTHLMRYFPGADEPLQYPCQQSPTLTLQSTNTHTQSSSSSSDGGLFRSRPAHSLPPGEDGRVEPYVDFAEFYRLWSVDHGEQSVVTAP

IC50 [3]	solubility [6]	SMILES	further results
–	–	COC(=O)c1cccc2nc3n(c12)CCCCCNC(=O)c1cccc(c1)C(=O)N3	ring closure, crude yield [1]: 76%
1 nM	–	CN1CCN(Cc2ccc3c(c2)nc2n3CCCCCNC(=O)c3cccc(c3)C(=O)N2)CC1 [Example 3, 1^5-((4-methylpiperazin-1-yl)methyl)-1^1H-2,6-diaza-1(2,1)-benzo[d]imidazola-4(1,3)-benzenacycloundecaphane-3,5-dione]	ring closure, isolated yield ([2]; from CN1CCN(Cc2ccc3c(c2)nc(NC(=O)c2cccc(C(=O)O)c2)n3CCCCCN)CC1, HATU/DIEA, DMF, 2.4 mM, 1.17 h): 13%; IC50 ([4]; Homo sapiens, 0.5 h): 4.5 nM; solubility [5]: 31.5 µM (≈ 14.5 µg/mL)
4 nM	0.9 µM (≈ 0.378 µg/mL)	COC(=O)c1cccc2nc3n(c12)C(C)CCCCNC(=O)c1cccc(c1)C(=O)N3 (centres unmarked) [Example 7, methyl 11-methyl-3,5-dioxo-1^1H-2,6-diaza-1(2,1)-benzo[d]imidazola-4(1,3)-benzenacycloundecaphane-1^7-carboxylate]	ring closure, isolated yield ([2]; from COC(=O)c1cccc2nc(NC(=O)c3cccc(C(=O)O)c3)n(C(C)CCCCN)c12, HATU/TEA, dioxane, 2.2 mM, 25.0 °C, 16.0 h, 2 steps): 21%
1 nM	30.9 µM (≈ 17.8 µg/mL)	CC1CCCCNC(=O)c2cccc(c2)C(=O)Nc2nc3cccc(C(=O)N4CCN(C(=O)OC(C)(C)C)CC4)c3n21 (centres unmarked) [Example 9, tert-butyl 4-(11-methyl-3,5-dioxo-1^1H-2,6-diaza-1(2,1)-benzo[d]imidazola-4(1,3)-benzenacycloundecaphane-1^7-carbonyl)piperazine-1-carboxylate]	IC50 [4]: 600 nM; potency and efficacy compared with Comparative Example 1 (takinib) ([4]; THP-1 cells, LPS, phospho-p38): greater
9 nM	95.0 µM (≈ 37.3 µg/mL)	O=C1NCCCCCn2c(nc3cccc(C(=O)O)c32)NC(=O)c2cccc1c2 [Example 18, (E)-3,5-dioxo-1^2,1^3-dihydro-1^1H-2,6-diaza-1(2,1)-benzo[d]imidazola-4(1,3)-benzenacycloundecaphane-1^7-carboxylic acid]	–
